According to US12703836B2, “Mixture of compounds with high molecular weights, obtained from sugar cane wax (Saccharum officinarum L.)” (CENTRO NACIONAL DE INVESTIGACIONES CIENTÍFICAS, priority 2021, dated 2026):

Key:
[1] = test system: Mongolian gerbils with global brain Ischemia/Reperfusion (I/R); experiment: Clinical symptom (neurological function) score after global cerebral ischemia by bilateral carotid occlusion/reperfusion; assay type: in vivo; details: 4 hours after I/R
Description: For the evaluation of the neuroprotective effect of the mixture of high molecular weight substances, the object of the present invention, an experimental model of global cerebral ischemia by occlusion and reperfusion of the carotid arteries was used. The composition of High Molecular Weight Substances (HMWS) obtained in example 1 was subjected to a preclinical test with animals, in which its pharmacological effect was compared with the effects of pure extracts of Fatty Acids in the form of Salts (AcGS), fatty alcohols (AlcG) and high molecular weight aldehydes (AldG), which were administered in the dose equivalent to the proportion in which each one is present in 200 mg/kg of the HMWS Active Ingredient. Furthermore, the effect of HMWS was compared with the effect of pure free fatty acid (AcGL) extract administered at equal doses. […] Once the quarantine was over, the gerbils were distributed into 8 groups: a negative control that only received vehicle and cerebral ischemia (CI) was not induced and 7 groups with induced CI. […] All treatments were administered orally through intragastric intubation (0.5 mL/70 g body weight) 1 hour prior to induction of ischemia. […] For 6 minutes, the number of times the gerbils crossed the different quadrants with their front legs and the number of times they stopped or leaned was quantified.

[2] = test system: plasma concentrations of MDA; experiment: Plasma lipid peroxidation (SRATB, MDA) after cerebral ischemia/reperfusion; assay type: in vivo, Mongolian gerbils; details: gerbils, plasma after I/R; oral HMWS 200, AcGS 132, AlcG 40, AldG 28, AcGL 200, ASA 60 mg/kg
Description: For the evaluation of the neuroprotective effect of the mixture of high molecular weight substances, the object of the present invention, an experimental model of global cerebral ischemia by occlusion and reperfusion of the carotid arteries was used. The composition of High Molecular Weight Substances (HMWS) obtained in example 1 was subjected to a preclinical test with animals, in which its pharmacological effect was compared with the effects of pure extracts of Fatty Acids in the form of Salts (AcGS), fatty alcohols (AlcG) and high molecular weight aldehydes (AldG), which were administered in the dose equivalent to the proportion in which each one is present in 200 mg/kg of the HMWS Active Ingredient. Furthermore, the effect of HMWS was compared with the effect of pure free fatty acid (AcGL) extract administered at equal doses. Once the quarantine was over, the gerbils were distributed into 8 groups: a negative control that only received vehicle and cerebral ischemia (CI) was not induced and 7 groups with induced CI. […] All treatments were administered orally through intragastric intubation (0.5 mL/70 g body weight) 1 hour prior to induction of ischemia. […] To determine lipid peroxidation, the formation of substances reactive to thiobarbituric acid (SRATB) was quantified (according to Ohkawa et al., 1979) in plasma, and was expressed as nmol malondialdehyde (MDA)/mg of protein.

SMILES: CC(=O)Oc1ccccc1C(=O)O [ASA, aspirin]
- Inhibition (%) of clinical symptom score ([1]; oral HMWS 200, AcGS 132, AlcG 40, AldG 28, AcGL 200, ASA 60 mg/kg, vs positive control): 86.6%
- SC score (clinical symptoms, McGraw scale 0-5) ([1]; single oral dose 1 hour before ischemia: HMWS (example 1) 200, AcGS 132, AlcG 40, AldG 28, AcGL 200, ASA 60 mg/kg, mean ± SEM, positive control 3.00 ± 0.52): 0.40 ± 0.35
- Inhibition (%) of MDA increase [2]: 0.0%
